# Measured values as given in US10472381B2, “Sialic acid derivatives” (Reinhard Brossmer, priority 2014, dated 2019).
# Molecular target: T1, CD22 (Homo sapiens, UniProt P20273)
# T1 construct: The soluble CD22 protein was expressed in the CHO-Lec1 cell line; made in house; host or cells: CHO-Lec1
# T1 sequence (P20273 20-687 limits assumed): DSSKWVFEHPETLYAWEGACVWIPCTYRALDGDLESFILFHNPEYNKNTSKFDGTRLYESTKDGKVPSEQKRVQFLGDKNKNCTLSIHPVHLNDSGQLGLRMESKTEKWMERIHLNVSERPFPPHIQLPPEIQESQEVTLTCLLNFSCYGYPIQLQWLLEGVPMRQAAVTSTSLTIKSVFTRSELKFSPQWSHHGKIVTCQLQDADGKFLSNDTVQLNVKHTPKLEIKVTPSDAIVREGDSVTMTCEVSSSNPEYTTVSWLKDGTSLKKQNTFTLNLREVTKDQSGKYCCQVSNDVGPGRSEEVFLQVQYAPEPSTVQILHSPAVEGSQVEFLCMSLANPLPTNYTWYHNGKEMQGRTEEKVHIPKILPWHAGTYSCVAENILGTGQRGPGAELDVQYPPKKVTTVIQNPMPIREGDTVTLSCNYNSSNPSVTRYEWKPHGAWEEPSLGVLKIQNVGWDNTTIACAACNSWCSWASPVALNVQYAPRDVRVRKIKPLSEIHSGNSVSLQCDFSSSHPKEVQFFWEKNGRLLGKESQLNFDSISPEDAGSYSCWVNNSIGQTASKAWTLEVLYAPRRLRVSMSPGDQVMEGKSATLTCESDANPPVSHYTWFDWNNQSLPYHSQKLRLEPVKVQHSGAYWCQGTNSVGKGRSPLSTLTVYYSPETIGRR
# Experiment: ELISA-based inhibition assay: inhibition of binding of soluble CD22 to immobilized IgM
# Conditions: Table II; relative to reference compound 10 co-tested in the same assay (rIP = 1)
# Description: The biological activity of the substances was determined in an ELISA-based inhibition assay as described in “Eur. J. Immunol. 2012, 42, 2792-2802”. The sialic acid derivatives of the formula (I) inhibit the binding of soluble CD22 to immobilized IgM in proportion to their affinity for CD22. The soluble CD22 protein was expressed in the CHO-Lec1 cell line and isolated as described by “Eur. J. Immunol. 2012, 42, 2792-2802”. […] The increase in affinity is reported as rIP (relative inhibitory affinity).
row,SMILES,rIP
1,CC(=O)N[C@@H]1[C@@H](NS(=O)(=O)c2cccc3c(N(C)C)cccc23)[C@H](O)[C@](OCCCCCC(=O)[O-])(C(=O)[O-])O[C@H]1[C@H](O)[C@H](O)CNC(=O)c1ccc(-c2ccccc2)cc1.[Na+].[Na+] [Compound 65],0.17

# Same assay, conditions: Table III; relative to reference compound 17 co-tested in the same assay (rIP = 1)
row,SMILES,rIP
1,CC(=O)N[C@H]1[C@H]([C@H](O)[C@H](O)CNC(=O)c2ccc(-c3ccccc3)cc2)O[C@@](OCCCCCC(=O)[O-])(C(=O)[O-])C[C@@H]1NC(=O)c1ccc(C(F)(F)F)cc1.[Na+].[Na+] [Compound 64],1.2
2,CC(=O)N[C@H]1[C@H]([C@H](O)[C@H](O)CNC(=O)c2ccc(-c3ccccc3)cc2)O[C@@](OCCCCCC(=O)[O-])(C(=O)[O-])C[C@@H]1NC(=O)OCc1ccccc1.[Na+].[Na+] [Compound 66],1.3

# Same assay, conditions: Table IV; relative to reference compound 66 co-tested in the same assay (rIP = 1)
row,SMILES,rIP
1,CC(=O)N[C@H]1[C@H]([C@H](O)[C@H](O)CNC(=O)c2ccc(-c3ccccc3)cc2)O[C@@](OCCCCCC(=O)[O-])(C(=O)[O-])C[C@@H]1NC(=O)OCc1ccccc1.[Na+].[Na+] [Compound 66],1
2,CC(=O)N[C@H]1[C@H]([C@H](O)[C@H](O)CNC(=O)c2ccc(-c3ccc(O)cc3)cc2)O[C@@](OCCCCCC(=O)[O-])(C(=O)[O-])C[C@@H]1NC(=O)OCc1ccccc1.[Na+].[Na+] [Compound 67],1.0
3,CC(=O)N[C@H]1[C@H]([C@H](O)[C@H](O)CNC(=O)c2ccc(-c3ccccc3F)cc2)O[C@@](OCCCCCC(=O)[O-])(C(=O)[O-])C[C@@H]1NC(=O)OCc1ccccc1.[Na+].[Na+] [Compound 68],0.76
4,COc1ccccc1-c1ccc(C(=O)NC[C@@H](O)[C@@H](O)[C@@H]2O[C@@](OCCCCCC(=O)[O-])(C(=O)[O-])C[C@H](NC(=O)OCc3ccccc3)[C@H]2NC(C)=O)cc1.[Na+].[Na+] [Compound 69],0.83
5,CC(=O)N[C@H]1[C@H]([C@H](O)[C@H](O)CNC(=O)c2ccc(-c3cccs3)cc2)O[C@@](OCCCCCC(=O)[O-])(C(=O)[O-])C[C@@H]1NC(=O)OCc1ccccc1.[Na+].[Na+] [Compound 70],0.88
6,CC(=O)N[C@H]1[C@H]([C@H](O)[C@H](O)CNC(=O)c2ccc(-c3cccs3)s2)O[C@@](OCCCCCC(=O)[O-])(C(=O)[O-])C[C@@H]1NC(=O)OCc1ccccc1.[Na+].[Na+] [Compound 71],0.28
7,CC(=O)N[C@H]1[C@H]([C@H](O)[C@H](O)CNC(=O)Cc2ccc3ccccc3c2)O[C@@](OCCCCCC(=O)[O-])(C(=O)[O-])C[C@@H]1NC(=O)OCc1ccccc1.[Na+].[Na+] [Compound 72],0.91
8,CC(=O)N[C@H]1[C@H]([C@H](O)[C@H](O)CNC(=O)c2cnc(-c3ccccc3)nc2)O[C@@](OCCCCCC(=O)[O-])(C(=O)[O-])C[C@@H]1NC(=O)OCc1ccccc1.[Na+].[Na+] [Compound 73],0.23
9,CC(=O)N[C@H]1[C@H]([C@H](O)[C@H](O)CNC(=O)c2ccc(-c3ccccc3)nc2)O[C@@](OCCCCCC(=O)[O-])(C(=O)[O-])C[C@@H]1NC(=O)OCc1ccccc1.[Na+].[Na+] [Compound 74],0.20
10,CC(=O)N[C@H]1[C@H]([C@H](O)[C@H](O)CNC(=O)c2ccc(Oc3ccccc3)cc2)O[C@@](OCCCCCC(=O)[O-])(C(=O)[O-])C[C@@H]1NC(=O)OCc1ccccc1.[Na+].[Na+] [Compound 75],0.25
11,CC(=O)N[C@H]1[C@H]([C@H](O)[C@H](O)CNC(=O)c2cccc3ccccc23)O[C@@](OCCCCCC(=O)[O-])(C(=O)[O-])C[C@@H]1NC(=O)OCc1ccccc1.[Na+].[Na+] [Compound 76],0.35
